In brackets after ≈: the same amount, converted by molar mass.
Columns and labels:
Salmonella choleraesuis [1] = assay: In vivo protection of mice infected intraperitoneally with Salmonella choleraesuis; conditions: multiple dosing, 25 mg./kg., percentage of animals which survive; for Percentage protection Sal. choleraesuis SC: subcutaneous (SC)
Description: (§1) In determining the in vivo activity of the compounds of the invention, the test compound is administered to mice which have been infected by intraperitoneal injection of a lethal inoculum of pathogenic bacteria. The test compound is administered using a multiple dosing regimen, using either the oral (PO) or the subcutaneous (SC) route. The inoculum of bacteria varies from one to about ten times the amount needed to kill 100% of the mice, under the conditions of the test. At the end of the test, the activity of a compound is assessed by counting the number of survivors among the treated animals, and expressing the activity of a compound as the percentage of animals which survive. In Table I, in vivo activities of several of the compounds of this invention against Salmonella choleraesuis and Pasteurella multocida are presented. | *The dosage of test compound in the protection studies using Salmonnella | choleraesuis was 25 mg./kg. of body weight, and using Pasteurella | multocida it was 50 mg./kg. of body weight.

Salmonella choleraesuis [2] = assay: In vitro MIC, two-fold serial dilution in Brain-Heart Infusion Broth, Salmonella choleraesuis; conditions: Salmonella enterica, read-out: MIC (minimum inhibitory concentration) Sal. choleraesuis
Escherichia coli = assay: In vitro MIC, two-fold serial dilution in Brain-Heart Infusion Broth, Escherichia coli; conditions: read-out: MIC (minimum inhibitory concentration) Esch. coli
Pasteurella multocida [3] = assay: In vitro MIC, two-fold serial dilution in Brain-Heart Infusion Broth, Pasteurella multocida; conditions: read-out: MIC (minimum inhibitory concentration) Past. multocida
Streptococcus pyogenes = assay: In vitro MIC, two-fold serial dilution in Brain-Heart Infusion Broth, Streptococcus pyogenes; conditions: read-out: MIC (minimum inhibitory concentration) Strep. pyogenes
Pasteurella multocida [4] = assay: In vivo protection of mice infected intraperitoneally with Pasteurella multocida; conditions: multiple dosing, 50 mg./kg., percentage of animals which survive; for Percentage protection Past. multocida SC: subcutaneous (SC)
Description: as §1

Treponema hyodysenteriae = assay: In vitro MIC, two-fold serial dilution in Brain-Heart Infusion Broth, Treponema hyodysenteriae; conditions: Brachyspira hyodysenteriae, read-out: MIC (minimum inhibitory concentration) Trep. hyodysenteriae

Structure (SMILES)	Percentage protection Sal. choleraesuis PO (Salmonella choleraesuis [1])	Percentage protection Sal. choleraesuis SC (Salmonella choleraesuis [1])	MIC (Salmonella choleraesuis [2])	MIC (Escherichia coli)	MIC (Pasteurella multocida [3])	MIC (Streptococcus pyogenes)	Percentage protection Past. multocida PO (Pasteurella multocida [4])	Percentage protection Past. multocida SC (Pasteurella multocida [4])	MIC (Treponema hyodysenteriae)
CC1(OCc2ccccc2)OCc2c1[n+]([O-])c1ccccc1[n+]2[O-] (centres unmarked) [1-Benzyloxy-1-methyl-1,3-dihydrofuro[3,4-b]quinoxaline 4,9-Dioxide]	40%	60%	12.5 µg/mL (≈ 38.5 µM)	12.5 µg/mL (≈ 38.5 µM)	3.12 µg/mL (≈ 9.62 µM)	6.25 µg/mL (≈ 19.3 µM)	–	–	–
CCOC1(C)OCc2c1[n+]([O-])c1ccccc1[n+]2[O-] (centres unmarked) [1-Ethoxy-1-methyl-1,3-dihydrofuro[3,4-b]quinoxaline 4,9-Dioxide]	70%	50%	12.5 µg/mL (≈ 47.7 µM)	12.5 µg/mL (≈ 47.7 µM)	12.5 µg/mL (≈ 47.7 µM)	3.12 µg/mL (≈ 11.9 µM)	–	–	–
CC1(O)OCc2c1[n+]([O-])c1ccccc1[n+]2[O-] (centres unmarked) [1-Hydroxy-1-methyl-1,3-dihydrofuro[3,4-b]quinoxaline 4,9-dioxide]	100%	100%	1.56 µg/mL (≈ 6.66 µM)	1.56 µg/mL (≈ 6.66 µM)	12.5 µg/mL (≈ 53.4 µM)	0.78 µg/mL (≈ 3.33 µM)	100%	100%	0.09 µg/mL (≈ 0.384 µM)
COC1(C)OCc2c1[n+]([O-])c1ccccc1[n+]2[O-] (centres unmarked) [1-Methoxy-1-methyl-1,3-dihydrofuro[3,4-b]quinoxaline 4,9-Dioxide]	100%	100%	1.56 µg/mL (≈ 6.28 µM)	3.12 µg/mL (≈ 12.6 µM)	3.12 µg/mL (≈ 12.6 µM)	0.78 µg/mL (≈ 3.14 µM)	90%	100%	–

Reference: patent publication US3991053A
